Legend:
[1] = target: Estrogen receptor beta (Homo sapiens, UniProt Q92731); conditions: sf9; also: in other assays of this panel Not Active means under 50% inhibition at 10 µM
[2] = target: Sodium-dependent dopamine transporter (Homo sapiens, UniProt Q01959); test: DRUGMATRIX: Dopamine Transporter radioligand binding (ligand: [125I] RTI-55); assay type: cell membranes, CHO-K1, Membrane; conditions: cho-k1; Not Active = under 50% inhibition at 10 µM
[3] = target: T1, Endothelin-1 receptor (Homo sapiens, UniProt P25101); assay type: cell membranes, CHO-K1, Membrane; conditions: cho-k1; also: in other assays of this panel Not Active means under 50% inhibition at 10 µM
T1 sequence (P25101 whole entry): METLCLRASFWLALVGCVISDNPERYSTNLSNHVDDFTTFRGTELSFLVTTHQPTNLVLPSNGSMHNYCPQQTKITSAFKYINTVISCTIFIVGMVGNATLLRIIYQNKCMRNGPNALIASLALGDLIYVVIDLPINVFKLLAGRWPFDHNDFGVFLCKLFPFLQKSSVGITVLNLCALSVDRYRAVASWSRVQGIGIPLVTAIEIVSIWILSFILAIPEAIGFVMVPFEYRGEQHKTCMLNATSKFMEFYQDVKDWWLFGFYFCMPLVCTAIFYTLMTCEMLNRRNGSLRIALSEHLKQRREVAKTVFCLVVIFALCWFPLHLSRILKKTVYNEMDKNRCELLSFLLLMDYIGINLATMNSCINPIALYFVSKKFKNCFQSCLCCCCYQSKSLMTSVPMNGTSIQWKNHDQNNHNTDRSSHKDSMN

[4] = target: Acetylcholinesterase (Homo sapiens, UniProt P22303); test: DRUGMATRIX: Acetylcholinesterase enzyme inhibition (substrate: acetylthiocholine); assay type: cell-based, HEK293; conditions: hek293; Not Active = under 50% inhibition at 10 µM
Sequence of Acetylcholinesterase (P22303 whole entry): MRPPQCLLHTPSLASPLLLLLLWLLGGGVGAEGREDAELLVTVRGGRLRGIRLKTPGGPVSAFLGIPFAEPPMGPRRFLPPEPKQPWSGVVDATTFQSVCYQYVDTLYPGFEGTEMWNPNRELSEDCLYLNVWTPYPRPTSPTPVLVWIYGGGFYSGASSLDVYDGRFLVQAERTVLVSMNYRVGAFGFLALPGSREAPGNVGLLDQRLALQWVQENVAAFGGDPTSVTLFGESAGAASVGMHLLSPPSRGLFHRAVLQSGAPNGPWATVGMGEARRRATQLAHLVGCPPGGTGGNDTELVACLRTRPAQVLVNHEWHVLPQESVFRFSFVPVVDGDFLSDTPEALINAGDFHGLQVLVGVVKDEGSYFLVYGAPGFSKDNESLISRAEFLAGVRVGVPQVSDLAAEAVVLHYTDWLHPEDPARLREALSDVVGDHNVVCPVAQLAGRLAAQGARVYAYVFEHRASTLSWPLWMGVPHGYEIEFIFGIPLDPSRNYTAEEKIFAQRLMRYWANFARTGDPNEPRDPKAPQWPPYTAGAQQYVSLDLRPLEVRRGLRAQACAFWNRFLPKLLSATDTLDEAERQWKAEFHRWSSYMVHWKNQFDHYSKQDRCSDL

[5] = target: Vascular endothelial growth factor receptor 1 (Homo sapiens, UniProt P17948); assay type: cell-based; conditions: huvec; also: in other assays of this panel Not Active means under 50% inhibition at 10 µM
Sequence of Vascular endothelial growth factor receptor 1 (P17948 whole entry): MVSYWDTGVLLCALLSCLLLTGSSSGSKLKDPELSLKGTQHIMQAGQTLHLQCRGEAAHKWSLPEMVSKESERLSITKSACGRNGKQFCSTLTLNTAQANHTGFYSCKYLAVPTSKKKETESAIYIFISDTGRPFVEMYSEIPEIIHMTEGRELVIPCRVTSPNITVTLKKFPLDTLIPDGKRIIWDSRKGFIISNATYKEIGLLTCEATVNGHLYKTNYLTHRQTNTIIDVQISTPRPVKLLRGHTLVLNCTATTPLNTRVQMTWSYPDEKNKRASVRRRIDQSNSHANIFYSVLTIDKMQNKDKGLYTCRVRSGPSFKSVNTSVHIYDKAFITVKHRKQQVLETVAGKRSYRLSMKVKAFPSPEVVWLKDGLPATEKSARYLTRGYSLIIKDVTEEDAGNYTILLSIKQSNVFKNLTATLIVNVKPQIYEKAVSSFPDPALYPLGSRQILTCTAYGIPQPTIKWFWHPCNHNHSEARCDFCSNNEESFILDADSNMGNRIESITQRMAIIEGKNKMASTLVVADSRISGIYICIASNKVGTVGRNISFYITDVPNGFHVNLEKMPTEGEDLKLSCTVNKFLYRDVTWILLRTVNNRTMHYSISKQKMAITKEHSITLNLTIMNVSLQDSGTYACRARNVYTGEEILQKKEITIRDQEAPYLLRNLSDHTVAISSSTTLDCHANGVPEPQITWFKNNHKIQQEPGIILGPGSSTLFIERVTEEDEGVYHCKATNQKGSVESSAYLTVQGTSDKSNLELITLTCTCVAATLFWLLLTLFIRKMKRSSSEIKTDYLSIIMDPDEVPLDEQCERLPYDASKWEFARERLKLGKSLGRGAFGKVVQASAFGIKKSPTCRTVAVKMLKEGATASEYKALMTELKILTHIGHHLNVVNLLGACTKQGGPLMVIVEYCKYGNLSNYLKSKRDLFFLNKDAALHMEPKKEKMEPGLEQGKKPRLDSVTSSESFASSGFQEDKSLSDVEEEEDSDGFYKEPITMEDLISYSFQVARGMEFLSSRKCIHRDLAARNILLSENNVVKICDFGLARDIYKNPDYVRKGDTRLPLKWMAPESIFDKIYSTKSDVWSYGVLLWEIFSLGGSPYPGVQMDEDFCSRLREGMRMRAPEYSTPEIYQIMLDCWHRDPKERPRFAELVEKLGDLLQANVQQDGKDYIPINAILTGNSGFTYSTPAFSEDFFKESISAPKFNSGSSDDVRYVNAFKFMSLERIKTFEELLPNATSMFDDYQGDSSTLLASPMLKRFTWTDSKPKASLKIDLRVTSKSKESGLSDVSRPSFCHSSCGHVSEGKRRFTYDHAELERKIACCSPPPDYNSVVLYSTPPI

[6] = target: Melanocortin receptor 4 (Homo sapiens, UniProt P32245); assay type: cell membranes, HEK293, Membrane; conditions: hek293; also: in other assays of this panel Not Active means under 50% inhibition at 10 µM
Sequence of Melanocortin receptor 4 (P32245 whole entry): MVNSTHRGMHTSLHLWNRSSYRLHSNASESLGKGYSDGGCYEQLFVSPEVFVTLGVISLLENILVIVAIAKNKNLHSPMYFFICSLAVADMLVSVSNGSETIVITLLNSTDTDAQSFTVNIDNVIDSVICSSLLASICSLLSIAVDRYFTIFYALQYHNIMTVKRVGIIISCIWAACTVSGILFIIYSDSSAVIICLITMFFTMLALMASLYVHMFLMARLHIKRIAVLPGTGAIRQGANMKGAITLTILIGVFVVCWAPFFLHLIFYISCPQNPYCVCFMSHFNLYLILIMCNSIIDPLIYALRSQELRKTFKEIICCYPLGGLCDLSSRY

Sequence of Estrogen receptor beta (Q92731 whole entry): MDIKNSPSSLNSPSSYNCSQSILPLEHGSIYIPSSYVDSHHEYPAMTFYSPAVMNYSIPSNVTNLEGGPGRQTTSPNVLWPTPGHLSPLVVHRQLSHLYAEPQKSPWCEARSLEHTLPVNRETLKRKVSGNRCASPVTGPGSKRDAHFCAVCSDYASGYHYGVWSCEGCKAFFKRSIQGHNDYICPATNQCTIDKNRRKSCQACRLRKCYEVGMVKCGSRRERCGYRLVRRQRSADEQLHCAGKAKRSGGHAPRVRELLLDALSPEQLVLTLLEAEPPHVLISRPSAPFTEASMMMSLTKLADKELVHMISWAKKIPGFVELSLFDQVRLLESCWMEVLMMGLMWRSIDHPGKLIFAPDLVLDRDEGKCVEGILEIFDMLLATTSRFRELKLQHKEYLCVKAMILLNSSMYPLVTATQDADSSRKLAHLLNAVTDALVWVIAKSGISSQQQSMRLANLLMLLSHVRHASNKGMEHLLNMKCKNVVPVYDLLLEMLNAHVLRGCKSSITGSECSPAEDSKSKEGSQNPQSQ
Sequence of Sodium-dependent dopamine transporter (Q01959 whole entry): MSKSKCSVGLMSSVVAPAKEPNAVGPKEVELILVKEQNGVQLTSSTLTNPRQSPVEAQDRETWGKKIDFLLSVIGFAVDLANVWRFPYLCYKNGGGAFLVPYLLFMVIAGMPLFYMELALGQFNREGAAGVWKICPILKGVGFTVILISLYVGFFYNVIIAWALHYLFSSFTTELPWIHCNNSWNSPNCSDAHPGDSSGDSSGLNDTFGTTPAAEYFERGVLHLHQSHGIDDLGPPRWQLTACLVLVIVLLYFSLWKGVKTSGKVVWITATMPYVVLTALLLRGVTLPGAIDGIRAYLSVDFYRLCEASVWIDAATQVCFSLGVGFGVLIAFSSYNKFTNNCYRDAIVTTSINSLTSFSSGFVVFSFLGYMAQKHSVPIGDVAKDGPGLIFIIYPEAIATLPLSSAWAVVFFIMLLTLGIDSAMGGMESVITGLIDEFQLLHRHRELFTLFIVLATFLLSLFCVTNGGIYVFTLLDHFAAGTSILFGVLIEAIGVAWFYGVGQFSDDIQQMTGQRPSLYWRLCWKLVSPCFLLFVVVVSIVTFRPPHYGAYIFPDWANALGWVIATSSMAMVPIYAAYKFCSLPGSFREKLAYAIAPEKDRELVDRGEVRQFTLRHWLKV

SODIUM NITROPRUSSIDE
Not Active: IC50 [1] | Ki [1] | IC50 [2] | Ki [2] | IC50 [3] | Ki [3] | IC50 [4] | Ki [4] | IC50 [5] | Ki [5] | IC50 [6] | Ki [6]

— ChEMBL document CHEMBL1909046, “DrugMatrix in vitro pharmacology data”
